Data taken from ChEMBL document CHEMBL1201862, “PubChem BioAssay data set” (2004).
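Interpolation was linear, between the two tested concentrations surrounding the appropriate level; five concentrations were tested over 48 hours in 96-well plates. Abbreviation: GI50, concentration required for 50% inhibition of growth.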 Activity calls are given as the source filed them. Cut-off read from the data, not from the text of the source: active = GI50 up to about 1.1 µM and inactive = higher.

Legend:
Assay in all cases: NCI-60 cell line screen, 48 h
CCRF-CEM = tested on: CCRF-CEM
786-0 = tested on: 786-0
UACC-62 = tested on: UACC-62
SNB-19 = tested on: SNB-19
MOLT-4 = tested on: MOLT-4
RXF 393 = tested on: RXF 393
DLD-1 = tested on: DLD-1
NCI-H460 = tested on: NCI-H460
SK-OV-3 = tested on: SK-OV-3
SW-620 = tested on: SW-620
M14 = tested on: M14
HOP-18 = tested on: HOP-18
SK-MEL-5 = tested on: SK-MEL-5
DMS-273 = tested on: DMS-273
K562 = tested on: K562
OVCAR-8 = tested on: OVCAR-8
SF-539 = tested on: SF-539
U-251 = tested on: U-251
SNB-75 = tested on: SNB-75
HCT-15 = tested on: HCT-15
NCI-H226 = tested on: NCI-H226
M19-MEL = tested on: M19-MEL
HOP-62 = tested on: HOP-62
HT-29 = tested on: HT-29
SF-268 = tested on: SF-268
HCT-116 = tested on: HCT-116
UO-31 = tested on: UO-31
OVCAR-3 = tested on: OVCAR-3
IGROV-1 = tested on: IGROV-1
A498 = tested on: A498
EKVX = tested on: EKVX
NCI-H522 = tested on: NCI-H522
KM12 = tested on: KM12
SK-MEL-28 = tested on: SK-MEL-28
HL-60 = tested on: HL-60
LXFL 529 = tested on: LXFL 529
SNB-78 = tested on: SNB-78
TK-10 = tested on: TK-10
SK-MEL-2 = tested on: SK-MEL-2
CAKI-1 = tested on: CAKI-1
KM-20L2 = tested on: KM-20L2
OVCAR-5 = tested on: OVCAR-5
SF-295 = tested on: SF-295
LOX IMVI = tested on: LOX IMVI
COLO 205 = tested on: COLO 205
DMS-114 = tested on: DMS-114
UACC-257 = tested on: UACC-257
Malme-3M = tested on: Malme-3M
RPMI-8226 = tested on: RPMI-8226
OVCAR-4 = tested on: OVCAR-4
NCI-H23 = tested on: NCI-H23
HCC 2998 = tested on: HCC 2998
A549 = tested on: A549
SN12C = tested on: SN12C
HOP-92 = tested on: HOP-92
ACHN = tested on: ACHN
XF498 = tested on: XF498

CCO/C([O-])=C(\C(=O)c1ccccc1)[n+]1c(C)sc2ccccc21
GI50 (CCRF-CEM): > 100 µM (inactive) | GI50 (786-0): > 100 µM (inactive) | GI50 (UACC-62): 52.8 µM (inactive) | GI50 (SNB-19): > 100 µM (inactive) | GI50 (MOLT-4): > 100 µM (inactive) | GI50 (RXF 393): > 100 µM (inactive) | GI50 (DLD-1): > 100 µM (inactive) | GI50 (NCI-H460): 59.3 µM (inactive) | GI50 (SK-OV-3): > 100 µM (inactive) | GI50 (SW-620): > 100 µM (inactive) | GI50 (M14): > 100 µM (inactive) | GI50 (HOP-18): 20 µM (inactive) | GI50 (SK-MEL-5): 16.7 µM (inactive) | GI50 (DMS-273): > 100 µM (inactive) | GI50 (K562): 81.3 µM (inactive) | GI50 (OVCAR-8): > 100 µM (inactive) | GI50 (SF-539): 93.3 µM (inactive) | GI50 (U-251): > 100 µM (inactive) | GI50 (SNB-75): > 100 µM (inactive) | GI50 (HCT-15): 21.9 µM | GI50 (NCI-H226): > 100 µM (inactive) | GI50 (M19-MEL): 18.4 µM (inactive) | GI50 (HOP-62): > 100 µM (inactive) | GI50 (HT-29): > 100 µM (inactive) | GI50 (SF-268): > 100 µM (inactive) | GI50 (HCT-116): > 100 µM (inactive) | GI50 (UO-31): 50.6 µM (inactive) | GI50 (OVCAR-3): > 100 µM (inactive) | GI50 (IGROV-1): > 100 µM (inactive) | GI50 (A498): > 100 µM (inactive) | GI50 (EKVX): > 100 µM (inactive) | GI50 (NCI-H522): 81.3 µM (inactive) | GI50 (KM12): > 100 µM (inactive) | GI50 (SK-MEL-28): > 100 µM (inactive) | GI50 (HL-60): 53.2 µM (inactive) | GI50 (LXFL 529): 54.1 µM (inactive) | GI50 (SNB-78): > 100 µM (inactive) | GI50 (TK-10): > 100 µM (inactive) | GI50 (SK-MEL-2): 58.3 µM (inactive) | GI50 (CAKI-1): > 100 µM (inactive) | GI50 (KM-20L2): > 100 µM (inactive) | GI50 (OVCAR-5): > 100 µM (inactive) | GI50 (SF-295): 64.4 µM (inactive) | GI50 (LOX IMVI): 49.2 µM (inactive) | GI50 (COLO 205): 83.6 µM (inactive) | GI50 (DMS-114): 32.3 µM (inactive) | GI50 (UACC-257): 13.5 µM (inactive) | GI50 (Malme-3M): 96.6 µM (inactive) | GI50 (RPMI-8226): 59 µM (inactive) | GI50 (OVCAR-4): 96.6 µM (inactive) | GI50 (NCI-H23): 61.8 µM (inactive) | GI50 (HCC 2998): > 100 µM (inactive) | GI50 (A549): 45.5 µM (inactive)

O=[PH](O)c1cccs1
GI50 (CCRF-CEM): > 100 µM (inactive) | GI50 (UACC-62): > 100 µM (inactive) | GI50 (SNB-19): > 100 µM (inactive) | GI50 (MOLT-4): > 100 µM (inactive) | GI50 (RXF 393): > 100 µM (inactive) | GI50 (DLD-1): > 100 µM (inactive) | GI50 (NCI-H460): > 100 µM (inactive) | GI50 (SK-OV-3): > 100 µM (inactive) | GI50 (SW-620): > 100 µM (inactive) | GI50 (M14): > 100 µM (inactive) | GI50 (SN12C): > 100 µM (inactive) | GI50 (HOP-18): > 100 µM (inactive) | GI50 (SK-MEL-5): > 100 µM (inactive) | GI50 (DMS-273): > 100 µM (inactive) | GI50 (K562): > 100 µM (inactive) | GI50 (OVCAR-8): > 100 µM (inactive) | GI50 (SF-539): > 100 µM (inactive) | GI50 (HOP-92): 57 µM (inactive) | GI50 (U-251): > 100 µM (inactive) | GI50 (ACHN): > 100 µM (inactive) | GI50 (HCT-15): > 100 µM | GI50 (M19-MEL): > 100 µM (inactive) | GI50 (HT-29): > 100 µM (inactive) | GI50 (SF-268): > 100 µM (inactive) | GI50 (HCT-116): > 100 µM (inactive) | GI50 (UO-31): > 100 µM (inactive) | GI50 (IGROV-1): > 100 µM (inactive) | GI50 (A498): > 100 µM (inactive) | GI50 (EKVX): > 100 µM (inactive) | GI50 (NCI-H522): > 100 µM (inactive) | GI50 (SK-MEL-28): > 100 µM (inactive) | GI50 (HL-60): > 100 µM (inactive) | GI50 (LXFL 529): > 100 µM (inactive) | GI50 (TK-10): > 100 µM (inactive) | GI50 (CAKI-1): > 100 µM (inactive) | GI50 (KM-20L2): > 100 µM (inactive) | GI50 (XF498): > 100 µM (inactive) | GI50 (SF-295): > 100 µM (inactive) | GI50 (LOX IMVI): > 100 µM (inactive) | GI50 (COLO 205): > 100 µM (inactive) | GI50 (DMS-114): > 100 µM (inactive) | GI50 (RPMI-8226): > 100 µM (inactive) | GI50 (NCI-H23): > 100 µM (inactive) | GI50 (A549): > 100 µM (inactive)

Cc1cc(O)c(C(=O)O)c2c1C(=O)c1c(O)c(OCC(O)C(O)C(O)C(O)CO)c(O)c(O)c1C2=O.NCCNCCO (centres undefined)
GI50 (CCRF-CEM): > 100 µM (inactive) | GI50 (786-0): > 100 µM (inactive) | GI50 (UACC-62): > 100 µM (inactive) | GI50 (SNB-19): > 100 µM (inactive) | GI50 (MOLT-4): > 100 µM (inactive) | GI50 (RXF 393): > 100 µM (inactive) | GI50 (DLD-1): > 100 µM (inactive) | GI50 (SK-OV-3): > 100 µM (inactive) | GI50 (SW-620): > 100 µM (inactive) | GI50 (M14): > 100 µM (inactive) | GI50 (SN12C): > 100 µM (inactive) | GI50 (HOP-18): > 100 µM (inactive) | GI50 (SK-MEL-5): > 100 µM (inactive) | GI50 (K562): > 100 µM (inactive) | GI50 (OVCAR-8): > 100 µM (inactive) | GI50 (SF-539): > 100 µM (inactive) | GI50 (HOP-92): > 100 µM (inactive) | GI50 (U-251): > 100 µM (inactive) | GI50 (SNB-75): > 100 µM (inactive) | GI50 (HCT-15): > 100 µM | GI50 (NCI-H226): > 100 µM (inactive) | GI50 (M19-MEL): > 100 µM (inactive) | GI50 (HOP-62): > 100 µM (inactive) | GI50 (HT-29): > 100 µM (inactive) | GI50 (SF-268): > 100 µM (inactive) | GI50 (UO-31): > 100 µM (inactive) | GI50 (OVCAR-3): > 100 µM (inactive) | GI50 (IGROV-1): > 100 µM (inactive) | GI50 (A498): > 100 µM (inactive) | GI50 (EKVX): > 100 µM (inactive) | GI50 (NCI-H522): > 100 µM (inactive) | GI50 (KM12): 39.9 µM (inactive) | GI50 (SK-MEL-28): > 100 µM (inactive) | GI50 (LXFL 529): > 100 µM (inactive) | GI50 (SNB-78): > 100 µM (inactive) | GI50 (TK-10): > 100 µM (inactive) | GI50 (SK-MEL-2): > 100 µM (inactive) | GI50 (CAKI-1): > 100 µM (inactive) | GI50 (KM-20L2): > 100 µM (inactive) | GI50 (XF498): > 100 µM (inactive) | GI50 (OVCAR-5): > 100 µM (inactive) | GI50 (SF-295): > 100 µM (inactive) | GI50 (LOX IMVI): > 100 µM (inactive) | GI50 (COLO 205): > 100 µM (inactive) | GI50 (DMS-114): > 100 µM (inactive) | GI50 (UACC-257): > 100 µM (inactive) | GI50 (Malme-3M): > 100 µM (inactive) | GI50 (RPMI-8226): > 100 µM (inactive) | GI50 (OVCAR-4): > 100 µM (inactive) | GI50 (NCI-H23): > 100 µM (inactive) | GI50 (HCC 2998): > 100 µM (inactive) | GI50 (A549): > 100 µM (inactive)
